Data on three molecules can be found in PMC9558223, “Staphylococcus aureus is able to generate resistance to novel lipoglycopeptide antibiotic gausemycin A” (Frontiers in Microbiology, 2022).

For assay [1], the system named is S. aureus FDA209P. In words: Serial passaging in increasing concentrations of antimicrobials. Type of assay: cell-based, Staphylococcus aureus. Particulars: for The highest concentration of antibiotic allowing growth: Mueller-Hinton II broth (CaCl2 50 mg/L), 37 °C, 24 h. The protocol: Gausemycin A-resistant variant was obtained by serial passaging as described previously (Pollard et al., [2012]). Isolated colonies of S. aureus FDA209P were inoculated into Mueller-Hinton II broth (CaCl2 50 mg/L) containing twofold dilutions of gausemycin A. The cultures were incubated at 37 °C with aeration for 24 h. After incubation, bacterial cells growing at the highest concentration of gausemycin A (below the MIC) were harvested and used for the next passage. The process was repeated for 20 passages. The dynamic of the developing resistance to gausemycin A was evaluated in comparison with daptomycin and ramoplanin. The experiments were performed in two independent series on separate days with three technical replicates each.

Assay [2] has as its system S. aureus 5812R. Nature of the assay: microbe, parasite or virus in culture. Type of assay: cell-based, Staphylococcus aureus. Particulars: for MIC: S. aureus 5812R, broth microdilution (CLSI), 10^6 CFU/ml, 24 h, 37 °C, absorbance at 600 nm; for Change of MIC / resistance of S. aureus 5812R compared to parent strain S. aureus FDA209P: ratio of MIC for 5812R and FDA209P. The protocol:
(§1) Minimal inhibitory concentration (MIC) was determined as previously described in Fuchs et al. ([2000]), following the Clinical and Laboratory Standards Institute (CLSI) guidelines for broth microdilution MIC assay. The bacteria were incubated in a 96-well microtiter plate (Eppendorf, Germany) containing 90 μL of inoculum prepared in growth media at 10^6 CFU/ml with 10 μL of twofold dilutions of the antibiotics. The results were evaluated after 24 h of cultivation at 37 °C. The bacterial growth was assessed by scanning the absorbance data at 600 nm obtained by spectrophotometer (Multiscan GO, Thermo Fisher Scientific, US).
A general note: In broth dilution the organism is exposed to a series of concentrations in liquid medium.

Assay [3] concerns S. aureus FDA209P. Nature of the assay: microbe, parasite or virus in culture. Particulars: broth microdilution (CLSI), 10^6 CFU/ml, 24 h, 37 °C, absorbance at 600 nm. Type of assay: cell-based, Staphylococcus aureus. Here is the method:
as §1

In assay [4] the test system is S. aureus 5812R. In words: microbe, parasite or virus in culture. Type of assay: cell-based, Staphylococcus aureus. Particulars: S. aureus 5812R; single antibiotic, 10^6 CFU/mL, 24 h, 37 °C. Here is the method: The effect of gausemycin A in combination with other antibiotics was evaluated using the checkerboard technique with modifications (Nwabor et al., [2021]). Briefly, 80 μL of diluted bacterial suspension (10^6 CFU/mL) was added to wells containing 10 μL of sub-inhibitory concentrations of gausemycin A and 10 μL of sub-inhibitory concentrations of conventional antibiotics. The plates were incubated for 24 h at 37°C. The effects of the antimicrobial combination were defined according to the fractional inhibitory concentration index (FICI). The ΣFICs were calculated as follows:
where FIC A is the MIC of drug A in the combination/MIC of drug A alone; and FIC B is the MIC of drug B in the combination/MIC of drug B alone. The result was interpreted as FIC ≤ 0.5 = Synergism, FIC > 0.5 to 1 = additivity, FIC >1 to 2 = indifference, and FIC >2 antagonism.

In assay [5] the test system is biofilm-embedded staphylococcal cells. The settings on record: ref Vasilchenko et al., 2020; cited from earlier work. The source says:
These lipoglycopeptides were firstly described in 2016 (Lapchinskaya et al., [2016]), and consequently named gausemycins A and B (Tyurin et al., [2021]). Gausemycin A is a macrocyclic peptide containing 14 amino acids, where tyrosine is glycosylated with arabinose, which makes gausemycin A unique among natural peptide antibiotics (Tyurin et al., [2021]). The closest structurally related compounds are depsipeptides (daptomycin, taromycins, and cadazides) and cyclopeptides ( ...

In assay [6] the test system is Staphylococcus aureus 5812R. In words: ID32 Staph strip, resistance (novobiocin). It is filed as cell-based. Particulars: colorimetric test. The protocol: (§2) The biochemical properties were assayed using the ID32 Staph strip (BioMerieux, France), which consists of a set of wells containing dried biochemical media for colorimetric tests.
Assay [7] has as its system Staphylococcus aureus FDA209 P. Nature of the assay: ID32 Staph strip, resistance (novobiocin). Type of assay: cell-based. The settings on record: colorimetric test. Here is the method:
as §2

Assay [8] relates to S. aureus 5812R. Nature of the assay: Membrane integrity assay (SYTO 9 / propidium iodide). Type of assay: cell-based, Staphylococcus aureus. The settings on record: 10 mM HEPES, 1.25 mM Ca2+, 10^8 CFU/ml, end-point 10 min. Here is the method: (§3) Membrane integrity was assessed using the fluorescent probes SYTO 9 and propidium iodide (PI) (LIVE/DEAD BacLight Bacterial Viability Kit, Molecular Probes, USA). The test strains were grown to the mid-log phase. The obtained cultures were centrifuged at 10,000 rpm for 10 min, the supernatant was discarded and the pellet was dispersed in 10 mM HEPES buffer supplemented with 1.25 mM Ca ^2+ to an optical density of 0.2 (OD 600) that corresponded to 10^8 CFU/ml. Bacterial cells in 50 μl were transferred to a 96-well microtiter plate (Eppendorf, US). SYTO 9 fluorescence kinetics was measured using Fluoroscan Ascent FL plate reader (Thermo Scientific, US) at 485 nm excitation and 535 nm of emission wavelengths as described earlier (Vasilchenko et al., [2020]). The assay was performed twice in three technical replicates.
(§4) Microscopy was performed using a Zeiss Axio Imager A2 fluorescent microscope (Carl Zeiss, Germany) equipped with filter sets useful for simultaneous viewing of SYTO 9 and PI stains.

Assay [9] concerns S. aureus FDA209P. Described as above. Type of assay: cell-based, Staphylococcus aureus. The settings on record: 10 mM HEPES, 1.25 mM Ca2+, 10^8 CFU/ml, end-point 10 min. The protocol: as §3, §4
In assay [10] the test system is S. aureus 5812R. Nature of the assay: Resistance stability testing (passaging in drug-free medium). Type of assay: cell-based, Staphylococcus aureus. The settings on record: 17 passages in gausemycin A-free Muller-Hinton broth. The protocol: The overnight culture of S. aureus 5812R was sub-cultured in gausemycin A-free Muller-Hinton broth and incubated overnight at 37°C with shaking. The obtained culture was evaluated on susceptibility to gausemycin A in the MIC assay as described previously. Passaging in the drug-free medium was repeated 17 times. The experiments were performed in two independent series on separate days with three technical replicates each.

Converted amounts (≈) assume the structure as drawn.

Turning to `CCCCCCCCCC(=O)N[C@@H](Cc1c[nH]c2ccccc12)C(=O)N[C@H](CC(N)=O)C(=O)N[C@@H](CC(=O)O)C(=O)N[C@@H]1C(=O)NCC(=O)N[C@@H](CCCN)C(=O)N[C@@H](CC(=O)O)C(=O)N[C@H](C)C(=O)N[C@@H](CC(=O)O)C(=O)NCC(=O)N[C@H](CO)C(=O)N[C@@H]([C@H](C)CC(=O)O)C(=O)N[C@@H](CC(=O)c2ccccc2N)C(=O)O[C@@H]1C` [Daptomycin], the “The highest concentration of antibiotic allowing growth” value (shortened to “The highest concentration”) with S. aureus FDA209P [1] (passage 1), in the assay on S. aureus FDA209P [1] (passage 2), with S. aureus FDA209P [1] (passage 3), in the assay with S. aureus FDA209P [1] (passage 4), in the assay with S. aureus FDA209P [1] (passage 5) and in the assay with S. aureus FDA209P [1] (passage 6) was 1.25 µg/mL each time. The “The highest concentration” value in the assay on S. aureus FDA209P [1] (passage 7) was 1.25 µg/mL; with S. aureus FDA209P [1] (passage 8), 1.25 µg/mL; in the assay on S. aureus FDA209P [1] (passage 9), 1.25 µg/mL; in the assay with S. aureus FDA209P [1] (passage 10), 1.25 µg/mL; with S. aureus FDA209P [1] (passage 11), 1.25 µg/mL; with S. aureus FDA209P [1] (passage 12), 2.50 µg/mL. Also, the “The highest concentration” value in the assay on S. aureus FDA209P [1] (passage 13), in the assay with S. aureus FDA209P [1] (passage 14), with S. aureus FDA209P [1] (passage 15), with S. aureus FDA209P [1] (passage 16), in the assay with S. aureus FDA209P [1] (passage 17) and with S. aureus FDA209P [1] (passage 18) was 2.50 µg/mL in each case. Moreover, the “The highest concentration” value with S. aureus FDA209P [1] (passage 19) was 2.50 µg/mL; in the assay with S. aureus FDA209P [1] (passage 20) it was 5.0 µg/mL. Further, the MIC was determined as 5.0 µg/mL (≈ 3.09 µM) in the assay with S. aureus 5812R [2] and 1.25 µg/mL (≈ 0.771 µM) with S. aureus FDA209P [3]. In the assay with S. aureus 5812R [2], the “Change of MIC / resistance of S. aureus 5812R compared to parent strain S. aureus FDA209P” value was 4 fold. Also, in the assay on S. aureus 5812R [2] (susceptibility testing of gausemycin A-resistant strain), the “Cross-resistance of S. aureus 5812R” value is recorded as “cross-resistance”. In the assay with S. aureus 5812R [4], the MIC alone came out at 5.0 µg/mL. The “Inhibition of biofilm-embedded staphylococcal cells” value in [5] is “inactive”.

On to `CO[C@@H]1[C@@H](OC(N)=O)[C@@H](O)[C@H](Oc2ccc3c(O)c(NC(=O)c4ccc(O)c(CC=C(C)C)c4)c(=O)oc3c2C)OC1(C)C` [novobiocin], for which the “Resistance (Novobiocin)” value in assay [6] and in assay [7] was “Positive” throughout.

On to Gausemycin A, for which the “The highest concentration” value with S. aureus FDA209P [1] (passage 1) was determined as 2.5 µg/mL; in the assay on S. aureus FDA209P [1] (passage 2), 2.5 µg/mL; in the assay on S. aureus FDA209P [1] (passage 3), 5 µg/mL; in the assay on S. aureus FDA209P [1] (passage 4) it was 5 µg/mL; with S. aureus FDA209P [1] (passage 5), 5 µg/mL; with S. aureus FDA209P [1] (passage 6), 5 µg/mL. Also, the “The highest concentration” value was 5 µg/mL in the assay with S. aureus FDA209P [1] (passage 7); 10 µg/mL in the assay with S. aureus FDA209P [1] (passage 8); 20 µg/mL with S. aureus FDA209P [1] (passage 9); 40 µg/mL in the assay on S. aureus FDA209P [1] (passage 10); 40 µg/mL in the assay with S. aureus FDA209P [1] (passage 11); 40 µg/mL with S. aureus FDA209P [1] (passage 12). Moreover, the “The highest concentration” value was 50 µg/mL in the assay on S. aureus FDA209P [1] (passage 13); 100 µg/mL with S. aureus FDA209P [1] (passage 14); 100 µg/mL in the assay with S. aureus FDA209P [1] (passage 15); 100 µg/mL in the assay with S. aureus FDA209P [1] (passage 16); 150 µg/mL in the assay with S. aureus FDA209P [1] (passage 17); 200 µg/mL in the assay with S. aureus FDA209P [1] (passage 18). Further, the “The highest concentration” value in the assay on S. aureus FDA209P [1] (passage 19) was 200 µg/mL; in the assay on S. aureus FDA209P [1] (passage 20), more than 200 µg/mL. The “Number of passages within which resistance was formed” value in the assay with S. aureus FDA209P [1] (serial passages with sub-inhibitory concentrations) is listed as not above 20 passages. Besides, the results for the MIC against S. aureus 5812R [2] and with S. aureus FDA209P [3] were more than 200 µg/mL and 2.5 µg/mL, respectively. For the same molecule, in the assay on S. aureus 5812R [2], the “Change of MIC / resistance of S. aureus 5812R compared to parent strain S. aureus FDA209P” value amounted to 80 fold. Also, the “Quenching of SYTO9 fluorescence” value in the assay with S. aureus 5812R [8] is listed as “not achieved at all taken concentrations”. Moreover, the “Concentration giving complete quenching of SYTO9 fluorescence” value in the assay on S. aureus FDA209P [9] came to 50 µg/mL. Also, the “Stability of resistance (MIC after passaging in drug-free medium)” value in the assay with S. aureus 5812R [10] was “did not change the MIC value”. In assay [5], the “Inhibition of biofilm-embedded staphylococcal cells” value is listed as “able to inhibit”.
